The values that follow come from publication PMC7985570 (Signal Transduction and Targeted Therapy, 2021).

Data set [1] relates to SARS-CoV-2 S-G614 pseudovirus. Conditions: for EC50: read-out: S-G614 Pseudovirus EC50.
A further data set in a line: in vitro. Conditions: human, 293T-ACE2 CC50.
The subject of data set [2] is SARS-CoV-2 S-G614 pseudovirus. As to the kind of experiment: organism not typed. Conditions: 293T/ACE2, read-out: S-G614 Pseudovirus EC50.
In a further data set the test system is VSV-G pseudovirus. Nature of the data set: microbe, parasite or virus in culture. The note with it: read-out: VSV-G Pseudovirus EC50. Type of data set: cell-based.
A further data set deals with SARS-CoV-2. The note with it: cited from earlier work.
Data set [3] relates to S-G614 pseudovirus. Nature of the data set: microbe, parasite or virus in culture. Type of data set: cell-based, SARS-CoV-2. Conditions: for EC50: Pseudovirus, 293T/ACE2, read-out: 293T-ACE2 Cells EC50 BAPTA-AM (0μM).
Data set [4] concerns S-G614 pseudovirus. As to the kind of experiment: microbe, parasite or virus in culture. The class given is cell-based. The note with it: read-out: EC50 against S-G614 pseudovirus in all three cell lines.
In data set [5] the test system is SARS-CoV-2 S-mediated membrane fusion of 293T-ACE2 cells. The class given is cell-based.
Data set [6] has as its target receptor-binding domain (RBD) in the S protein of SARS-CoV-2 (Severe acute respiratory syndrome coronavirus 2, UniProt P0DTC2).
In the next data set the test system is native SARS-CoV-2. Type of data set: cell-based.

Read-outs that look alike come from different tables or passages of the source.

With `COc1cc2c(cc1OC)[C@@H](Cc1ccc(Oc3cc(C[C@@H]4c5cc(OC)c(OC)cc5CCN4C)ccc3O)cc1)N(C)CC2` [SC184, Dauricine], in data set [1] (human), the “SI (cytotoxicity)” value is reported as “>34.99”. The molecule further yielded a CC50 in “in vitro” of over 50 µM. The EC50 in [2] is 1.43 µM; in the data set on VSV-G pseudovirus (Pseudovirus) it was over 50 µM.

For `CCOC(=O)[C@H]1O[C@@H]1C(=O)N[C@@H](CC(C)C)C(=O)NCCC(C)C` [Aloxistatin, aloxistatin, reference compound], the “SI (cytotoxicity)” value in [1] (human) is on record as “>54.17”. This molecule also showed a CC50 in “in vitro” of over 50 µM. The EC50 in [2] is 0.923 µM; with VSV-G pseudovirus (Pseudovirus), over 50 µM.

For the molecule `Cc1nnc(C(=O)NC(C)(C)c2nc(C(=O)NCc3ccc(F)cc3)c([O-])c(=O)n2C)o1.[K+]` [SC109, Raltegravir (potassium salt)], in [1], the “SI (cytotoxicity)” value is listed as “>247647” and the EC50 was determined as 0.0002 µM. In the data set with 293T-ACE2 cells, this molecule registered a CC50 of over 50 µM. Moreover, the EC50 in the data set with VSV-G pseudovirus stood at 0.0359 µM.

As to `COc1cc2c(cc1O)[C@@H](Cc1ccc(O)c(Oc3ccc(C[C@@H]4c5cc(OC)c(OC)cc5CCN4C)cc3)c1)N(C)CC2` [SC187, Daurisoline], in data set [1], the “SI (cytotoxicity)” value is recorded as “>20.13” and the EC50 was found to be 2.48 µM. The CC50 with 293T-ACE2 cells is over 50 µM. The EC50 in the data set with VSV-G pseudovirus was over 50 µM.

Regarding `CCOC(=O)C1=C(COCCN)NC(C)=C(C(=O)OC)C1c1ccccc1Cl` (stereo not shown) [amlodipine], the viral infection result with SARS-CoV-2 is “reduced viral infection”.

For the molecule `CC(N)C12CC3CC(CC(C3)C1)C2.Cl` (stereo not shown) [SC16, Rimantadine (hydrochloride)], in data set [1], the “SI (cytotoxicity)” value was “>1.45” and the EC50 was found to be 34.6 µM. Moreover, in the data set on 293T-ACE2 cells, the CC50 was over 50 µM.

On to `COc1ccc2cc1Oc1ccc(cc1)CC1c3cc(c(OC)cc3CCN1C)Oc1c(O)c(OC)cc3c1C(C2)N(C)CC3` (stereo not shown) [SC181, Isofangchinoline], for which the “SI (cytotoxicity)” value in data set [1] is reported as “>45.00”. The results for the EC50 (in data set [1]; with VSV-G pseudovirus) were 1.11 µM and 3.95 µM, respectively. The same molecule registered a CC50 with 293T-ACE2 cells of over 50 µM.

For Aloperine [SC96], in [1], the “SI (cytotoxicity)” value is reported as “>176.87” and the EC50 is 0.28 µM. This molecule registered a CC50 in the data set with 293T-ACE2 cells of over 50 µM. The EC50 with VSV-G pseudovirus was determined as 10.8 µM.

With `COc1ccc2cc1Oc1ccc(cc1)C[C@H]1c3cc(c(OC)cc3CCN1C)Oc1c(O)c(OC)cc3c1[C@H](C2)N(C)CC3` [SC180, Fangchinoline], the “SI (cytotoxicity)” value in data set [1] (human) was “>53.39”. The molecule also displayed a CC50 in “in vitro” of over 50 µM. The EC50 in data set [2] was found to be 0.94 µM; with VSV-G pseudovirus (Pseudovirus), 4.39 µM.

For `Cl.N=c1ccn2c(n1)O[C@H]1[C@H](O)[C@@H](CO)O[C@H]12` [SC33, Ancitabine (hydrochloride)], in data set [1], the “SI (cytotoxicity)” value is “>4.94” and the EC50 turned out to be 10.1 µM. In addition, the CC50 in the data set with 293T-ACE2 cells was over 50 µM. The EC50 in the data set on VSV-G pseudovirus is over 50 µM.

On to Berbamine hydrochloride [SC183], for which, in data set [1] (human), the “SI (cytotoxicity)” value is given as “>38.94”. The EC50 was 1.28 µM in [1] and over 50 µM with VSV-G pseudovirus. In the data set with 293T-ACE2 cells (human), this molecule yielded a CC50 of over 50 µM.

Consider `COc1ccc(C[C@@H]2c3cc(Oc4cc(C[C@@H]5c6cc(O)c(OC)cc6CCN5C)ccc4O)c(OC)cc3CCN2C)cc1` [SC188, Isoliensinine], for which, in data set [1] (human), the “SI (cytotoxicity)” value was “>38.88”. Further, the CC50 in “in vitro” was over 50 µM. The results for the EC50 (in [2]; in the data set with VSV-G pseudovirus (Pseudovirus)) were 1.29 µM and 7.02 µM, respectively.

In the case of `CC(=O)OCOC(=O)CN(CC(=O)OCOC(C)=O)c1ccccc1OCCOc1ccccc1N(CC(=O)OCOC(C)=O)CC(=O)OCOC(C)=O` [BAPTA-AM, reference compound], the “SARS-CoV-2 pseudovirus infection on intracellular Ca2+ chelation” value in the data set on S-G614 pseudovirus [3] is recorded as “significantly diminished”.

On to `COc1ccc2cc1Oc1ccc(cc1)C[C@H]1c3cc(c(OC)cc3CCN1C)Oc1c(OC)c(OC)cc3c1[C@H](C2)N(C)CC3` [SC182, Tetrandrine], for which, in data set [1] (human), the “SI (cytotoxicity)” value was “>55.80”. In the data set “in vitro”, this molecule gave a CC50 of over 50 µM. Moreover, the EC50 in [2] is 0.9 µM; in the data set on VSV-G pseudovirus (Pseudovirus), 27.9 µM; in the data set on S-G614 pseudovirus [4] it was under 10 µM. Besides, the “decrease of fusion rates” value in [5] is listed as “approximately 90%”.

As to `CC1CCN(CC(O)COc2cccc(OCC(O)CN3CCC(C)CC3)c2)CC1` (stereo not shown) [SC171, 3,3'-(1,3-phenylenebis(oxy))bis(1-(4-methylpiperidin-1-yl)propan-2-ol)], the EC50 with S-G614 pseudovirus [3] is 3.83 µM. Further, the “interaction with RBD” value in data set [6] is given as “negligible”. Besides, in the data set with native SARS-CoV-2, the “Virus-induced cytopathogenic effect and viral RNA levels” value is “partially inhibited”; the “relative viral RNA levels” value was 43.55%. In the data set on S-G614 pseudovirus [4], the EC50 is under 10 µM.

For the molecule `COc1ccc(C[C@@H]2c3cc(Oc4cc(C[C@@H]5c6cc(OC)c(OC)cc6CCN5C)ccc4O)c(OC)cc3CCN2C)cc1` [SC185, Neferine], in the data set “in vitro”, the CC50 was over 50 µM. Besides, the EC50 is 0.946 µM in the data set with S-G614 pseudovirus [3], 0.95 µM in [2], over 50 µM in the data set with VSV-G pseudovirus (Pseudovirus) and under 10 µM with S-G614 pseudovirus [4]. For the same molecule, the “interaction with RBD” value in data set [6] is reported as “negligible”. Moreover, in the data set on native SARS-CoV-2, the “Virus-induced cytopathogenic effect and viral RNA levels” value was “partially inhibited”. The “relative viral RNA levels” value with native SARS-CoV-2 is reported as 76.98%. In data set [5], the “decrease of fusion rates” value was “approximately 90%”.

On to `COc1c2c(cc3c1-c1c(cc4c(c1OC)OCO4)C[C@H](C)[C@H](C)C3)OCO2` [SC8, Schisandrin C], for which the “SI (cytotoxicity)” value in data set [1] (human) was “>3.43”. The molecule also gave a CC50 in the data set “in vitro” of over 50 µM. Also, the EC50 in data set [2] is 14.6 µM.

`Cc1cccc2c3c(ccc12)C1=C(C(=O)C3=O)[C@@H](C)CO1` [SC24, Dihydrotanshinone I]: the “SI (cytotoxicity)” value in [1] (human) was 0.90. Also, the CC50 in the data set “in vitro” was 33.5 µM. Further, the EC50 in [2] was 15.7 µM.

On to `COc1ccc2cc1Oc1ccc(cc1)C[C@H]1c3c(cc4c(c3Oc3cc5c(cc3OC)CCN(C)[C@@H]5C2)OCO4)CCN1C` [SC9, Cepharanthine], for which the values for the EC50 with S-G614 pseudovirus [3] and in the data set on S-G614 pseudovirus [4] were 0.315 µM and under 10 µM, respectively. The “interaction with RBD” value in data set [6] is “negligible”. In addition, the “Virus-induced cytopathogenic effect and viral RNA levels” value in the data set with native SARS-CoV-2 is reported as “partially inhibited”. The “relative viral RNA levels” value in the data set on native SARS-CoV-2 came out at 0.08%. Also, in data set [5], the “decrease of fusion rates” value was “approximately 90%”.

In the case of `O=C1Nc2ccc(Cl)cc2[C@@](C#CC2CC2)(C(F)(F)F)O1` [SC102, Efavirenz], the “SI (cytotoxicity)” value in data set [1] (human) is given as “>130890”. For the same molecule, in “in vitro”, the CC50 was over 50 µM. For the same molecule, the EC50 in [2] was 0.00038 µM; with VSV-G pseudovirus (Pseudovirus), 0.000723 µM.

For `COc1cc2c(cc1OC)[C@@H](Cc1ccc(O)c(Oc3cc4c(cc3OC)CCN(C)[C@@H]4Cc3ccc(O)cc3)c1)N(C)CC2` [SC186, Liensinine], in data set [1], the “SI (cytotoxicity)” value was “>49.80”. For the same molecule, the EC50 in [1] was 1 µM; in the data set on VSV-G pseudovirus, over 50 µM. In the data set with 293T-ACE2 cells, this molecule registered a CC50 of over 50 µM.

For the molecule `COc1ccc2cc1Oc1ccc(cc1)C[C@H]1c3cc(c(OC)cc3CCN1C)Oc1c(OC)c(OC)c(OC)c3c1[C@H](C2)N(C)CC3` [SC161, Hernandezine], the EC50 with S-G614 pseudovirus [3] is 0.111 µM. Also, in data set [6], the “interaction with RBD” value was “negligible”. Moreover, in the data set with native SARS-CoV-2, the “Virus-induced cytopathogenic effect and viral RNA levels” value was “partially inhibited”; the “relative viral RNA levels” value was 70.27%. In addition, the EC50 in the data set on S-G614 pseudovirus [4] is under 10 µM. In addition, in data set [5], the “decrease of fusion rates” value was “approximately 90%”.
